Laboratory results as given in US6558435B2, “Reactive crystallization method to improve particle size” (Pfizer, Inc., priority 2000, dated 2003).
Counter-ions that a name gives are not always drawn.

Experiments:
Type in all cases: physicochemical
[1] = Particle size analysis by Malvern light scattering, hexane as dispersant; conditions: for D90, 90% of the particles by volume less than / volume mean diameter, D[4,3] / fines (particles below about 1 micron detected): Malvern, hydrochloride monohydrate; for D90, 90% of the particles by volume less than / volume mean diameter, D[4,3]: dried crystals; for particle size distribution compared with batch crystallized and milled sample: impinging jet material vs comparative 15.6 kg sample
Protocol: X-ray diffraction (XRD) and differential scanning calorimetry (DSC) indicated the correct form of Ziprasidone hydrochloride monohydrate was produced by the impinging jet reactive crystallization process. The dried powder crystals were sieved through a 600 micron sieve as a means to delump. The particles were analyzed by Malvern using hexane as a dispersant.
The crystals were sieved through a 600 micron sieve to delump and the particles were analyzed by Malvern using hexane as a dispersant. […] According to patent EU 0 965 343 A2 (08.06.1999), the most preferred mean particle size of Ziprasidone hydrochloride monohydrates is in the 5-30 micron range obtained through milling operations which the present invention achieves without the need for high intensity milling. The particle sizes stipulated herein and in the claims refer to particle sizes determined with Malvern light scattering.
In a comparative 15.6 kg sample produced by the typical batch crystallization process method followed by milling using a pin mill at 10,000 rpm, the volume mean diameter, D[4,3], was 23.6 microns with 90% of the particles by volume less than 51 microns, while 5.4% of the batch by the volume distribution had particle size less than 1 micron indicating a much greater number of fines. […]

[2] = Dry particle sizing analysis (SympaTec)
Protocol: The crystals were dried in a vacuum oven at 50° C. and 10 inches of Hg with an air bleed for 24 hours. The dried material was sieved through a 30 mesh (600 μm) screen as a means to delump. Differential scanning calorimetry and x-ray diffraction confirmed the complete conversion to the Voriconazole free-base. No unreacted Voriconazole camphorsulfonate was detected.
Specification of product conventionally obtained by jet milling is 90% less than 130 microns and 50% less than 50 microns.

[3] = Particle size analysis (Aerosizer)
Protocol: Flow of neat methanol and ethyl acetate was initiated through their respective jets at 20 ml/min for 5 seconds from separate reservoirs to establish steady state flow. By way of two 3-way valves the solutions of 5,8,14-triazatetracyclo[10.3.1.0^2,11.0^4,9]-hexadeca-2(11),3,5,7,9-pentaene free base solution and (L)-tartaric acid were switched on so they would impinge each other at the same 20 ml/min flow rate. The velocities through the jets were 13.4 meters/sec. After 1 minute of impingement the flows were stopped and the resulting slurry was allowed to age in the agitated receiver for 5 minutes. The slurry was vacuum filtered and dried at 40° C. overnight and delumped through a 500 micron sieve.

[4] = Particle size of the jet milled seed (method not given)
Protocol: A receiving vessel contained 250 ml of methanol and 250 ml of ethyl acetate to which 20 milligrams of jet milled 5,8,14-triazatetracyclo[10.3.1.0^2,11.0^4,9]-hexadeca-2(11),3,5,7,9-pentaene (L)-tartrate were added as seed. […] The receiver was equipped with magnetic stirrer to suspend the seed in the methanol-ethyl acetate solvent system. The impinging jet apparatus was submerged in the receiver vessel with both jets having inside diameters of 0.007 inches (ID).

| D90, 90% of the particles by volume less than [1] [microns] | volume mean diameter, D[4,3] [1] [microns] | SMILES | fines (particles below about 1 micron detected) [1] | particle size distribution compared with batch crystallized and milled sample [1] | other results |
| --- | --- | --- | --- | --- | --- |
| 83 | 43 | O=C1Cc2cc(CCN3CCN(c4nsc5ccccc45)CC3)c(Cl)cc2N1 [Example 1, Ziprasidone hydrochloride monohydrate] | No particles with diameters of less that 0.9 micron were detected | narrower particle size distribution with fewer fines produced |  |
| 41 | 22.5 | O=C1Cc2cc(CCN3CCN(c4nsc5ccccc45)CC3)c(Cl)cc2N1 [Example 2, Ziprasidone hydrochloride monohydrate] | No particles of less that 1.0 micron were detected | narrower particle size distribution with fewer fines produced |  |
| 210 | 104 | O=C1Cc2cc(CCN3CCN(c4nsc5ccccc45)CC3)c(Cl)cc2N1 [Example 3, Ziprasidone hydrochloride monohydrate] | No particles below 1 micron were measured |  |  |
|  |  | C[C@@H](c1ncncc1F)[C@](O)(Cn1cncn1)c1ccc(F)cc1F [Example 4, Voriconazole free base] |  |  | 50% of particles (D[v,0.50]) less than [2]: 18 microns; 90% of particles (D[v,0.9]) less than [2]: 41 microns; volume mean diameter ([2]; sieved through 30 mesh): 22 microns |
|  |  | O=C(O)C(O)C(O)C(=O)O.c1cnc2cc3c(cc2n1)C1CNCC3C1 [Example 5, 5,8,14-triazatetracyclo[10.3.1.0^2,11.0^4,9]-hexadeca-2(11),3,5,7,9-pentaene L-tartrate] |  |  | 5% of particles less than [3]: 5 microns; 95% of the particles less than [3]: 15 microns; volume mean diameter ([3]; delumped through 500 micron sieve): 10 microns |
|  |  | O=C(O)C(O)C(O)C(=O)O.c1cnc2cc3c(cc2n1)C1CNCC3C1 [seed, 5,8,14-triazatetracyclo[10.3.1.0^2,11.0^4,9]-hexadeca-2(11),3,5,7,9-pentaene (L)-tartrate] |  |  | volume mean diameter [4]: 2.7 microns |
